# Assay results: patent US20180369230A1, “TARGETED SELECTION OF PATIENTS FOR TREATMENT WITH SPECIFIC CORTISTATIN DERIVATIVES” (President and Fellows of Harvard College, priority 2015, published 2018)
# pIC50: −log10 of the molar value. Like-named read-outs stand apart in the source and are kept apart here.
# Assays:
# Type in all cases: cell-based
# MM1.S = experiment: Cellular proliferation assay; settings: MM
# Experimental: (§1) All suspension cells were plated (96-well) in triplicate at 5,000-30,000 cells per well for testing (n=3). Viable cell number was estimated after 3, 7 and 10 days by counting viable cells from one vehicle well, generating a cell dilution series, transferring […] per well in duplicate to a 384-well plate, and performing a linear regression to CellTiter-Glo (Promega) response (SPECTRAmax M3, Molecular Devices). Cells from all wells were also fourfold diluted in media and transferred in duplicate for CellTiter-Glo measurement. On days 3 and 7, an equal volume for all wells was split-back with fresh media and compound, such that the resulting cell density for the vehicle well matched the initial seeding density. For days 7 and 10, estimated cell number represents the split-adjusted theoretical cell number. HCT116 were plated (96-well) in triplicate at 250 cells per well. Cells were incubated in the presence of vehicle, 1 μM paclitaxel, or compound. On day 7, CellTiter-Blue (Promega) response was measured and values were normalized to vehicle (100% growth) and paclitaxel (0% growth). For growth assays with inhibitors, n=3 for each concentration with two independent experiments.
# MOLM-14 = experiment: Cellular proliferation assay
# Experimental: as §1
# HEL = experiment: Cellular proliferation assay
# Experimental: as §1
# TF-1 = experiment: Cellular proliferation assay
# Experimental: as §1
# MEG-01 = experiment: Cellular proliferation assay
# Experimental: as §1
# SKNO-1 = experiment: Cellular proliferation assay
# Experimental: as §1
# GRANTA 519 = experiment: Cellular proliferation assay; settings: Mantle Cell Lymphoma
# Experimental: as §1
# JeKo-1 = experiment: Cellular proliferation assay; settings: Mantle Cell Lymphoma
# Experimental: as §1
# Kasumi-1 = experiment: Cellular proliferation assay; settings: AML, RUNX1-RUNX1T1
# Experimental: as §1
# K562 = experiment: Cellular proliferation assay
# Experimental: as §1
# ARH-77 = experiment: Cellular proliferation assay; settings: MM/PCL
# Experimental: as §1
# NB4 = experiment: Cellular proliferation assay; settings: AML/APL, PML-RARA
# Experimental: as §1
# Jurkat = experiment: Cellular proliferation assay; settings: T-ALL
# Experimental: as §1
# SET-2 cells = experiment: SET-2 differentiation assay; settings: 50 nM, 3 days, flow cytometry
# Experimental: For the SET-2 differentiation assay, cells were plated (6-well) in triplicate at 150,000 cells per ml for 3-days with 50 nM CA, 50 ng ml^−1 PMA (positive control), or vehicle. Cell pellets were collected at 4° C., washed three times with cold PBS, and stained with anti-CD61-PE (ab91128) or anti-CD41-PerCP (ab134373) and analyzed by flow cytometry. For each experiment, n=3 biological replicates with two independent experiments and one shown (FIG. 3).
substance,measurement,setting,value
Cortistatin A,GI50,MM1.S,5 nM
same,GI50,"MOLM-14; MOLM-14 (MLL-AF9), 10-day treatment, read-out: G150 after 10 days of treatment",5 nM
same,GI50,"MOLM-14; MOLM-14, AML, MLL-AF9, read-out: GI50",5 nM
same,pIC50,"HEL; HEL (JAK2V617F), erythroleukemia, 10-day treatment, read-out: G150 after 10 days of treatment",< 6.00
same,GI50,"HEL; HEL, AML/Erythroleukemia, JAK2V617F",> 1000 nM
same,pIC50,"TF-1; TF-1 (EpoR), erythroleukemia, 10-day treatment, read-out: G150 after 10 days of treatment",6.46
same,GI50,"TF-1; TF-1, AML/Erythroleukemia, EpoR",350 nM
same,pIC50,"MEG-01; MEG-01 (BCR-AB1, GAGA1s), adult non-DS-AMKL, 10-day treatment, read-out: G150 after 10 days of treatment",8.05
same,GI50,"MEG-01; MEG-01, CML/AMkL, BCR-ABL, GATA1s",9 nM
same,pIC50,"SKNO-1; SKNO-1 (RUNX1-RUNX1T1), 10-day treatment, read-out: G150 after 10 days of treatment",9.00
same,GI50,"SKNO-1; SKNO-1, RUNX1-RUNX1T1",1 nM
same,GI50,GRANTA 519,400 nM
same,GI50,JeKo-1,< 1 nM
same,GI50,Kasumi-1,95 nM
same,pIC50,"K562; K562 (BCR-Abl), erythroleukemia, 10-day treatment, read-out: G150 after 10 days of treatment",< 6.00
same,GI50,"K562; K562, CML/Erythroleukemia, BCR-ABL",> 1000 nM
same,GI50,ARH-77,16 nM
same,GI50,NB4,> 1000 nM
same,GI50,Jurkat,155 nM
same,"differentiation, megakaryocytic markers CD41 and CD61",SET-2 cells,induces differentiation
